One data set concerns SARS-CoV-2. The experiment in a line: Antiviral effect in iPSC-derived pneumocyte system. It is filed as cell-based. To be noted: iPSC pneumocytes SARS-CoV-2 antiviral effect; for perc_max_measured: maximum measured response of dose series; for perc_min_measured: minimum measured response of dose series.
Data set [1] can be described thus: In vitro kinetic solubility. As to conditions: In vitro kinetic solubility, ph 7.4.
The nature of data set [2]: Hepatic microsomal stability, MLM. The class given is in vitro ADME.
The nature of data set [3]: Hepatic microsomal stability, HLM. The class given is in vitro ADME, human. As to conditions: In vitro human liver microsomal stability; for perc_remaining_no_cofactor: no cofactor. A general note: Microsomes from liver hold many membrane-bound enzymes, among them those of drug oxidation.
Data set [4] can be described thus: Permeability Papp (AB) MDR1/MDCKII. As to conditions: In vitro MDR1-MDCKII permeability; for papp_a_to_b_mean: A to B; for perc_recovery_a_to_b_mean: recovery A to B.
Data set [5] deals with SARS-CoV-2, isolate USA-WA1/2020. Put plainly: microbe, parasite or virus in culture. As to conditions: HeLa-ACE2 SARS-CoV-2 antiviral effect without P-gp inhibitor; for perc_max_measured: maximum measured response of dose series; for perc_min_measured: minimum measured response of dose series; for EC50: read-out: ec50; for EC90: read-out: ec90. The class given is cell-based.

Another data set concerns iPSC pneumocytes. The experiment in a line: iPSC pneumocytes cytotoxicity. It is filed as cell-based. To be noted: protocol iPSC pneumocytes cytotoxicity; for perc_max_measured: highest measured response of the dose series; for perc_min_measured: lowest measured response of the dose series. The text has this: Supplement media-1.zip/Cytotoxicity.csv, table | column: cc10; cc50; perc_min_measured; perc_max_measured

Another data set can be described thus: LogD. To be noted: pH 7.4; In vitro LogD.
Another data set is described as follows: in vitro. To be noted: human, hela-ace2 cells, 50.0.
In the next data set the test system is HeLa-ACE2 cells. To be noted: for perc_max_measured: highest measured response of the dose series; for perc_min_measured: lowest measured response of the dose series.
Data set [6] concerns the target T1, SARS-CoV-2 nsp3-mac1 (Severe acute respiratory syndrome coronavirus 2, UniProt P0DTD1). Put plainly: biochemical. As to conditions: for perc_max_measured: highest measured response; for perc_min_measured: lowest measured response; for hill_slope: TR-FRET dose response curve fit.
Data set [7] has as its target T1, SARS-CoV-2 nsp3-mac1. Put plainly: biochemical. The class given is biochemical. To be noted: for inhibition at 50 µM / inhibition at 100 µM: read-out: perc_inhibition_mean; for perc_inhibition_mean: SARS-CoV-2 nsp3 macrodomain TR-FRET single point, concentration 50.0 uM.
Data set [8] has as its target T1, SARS-CoV-2 nsp3-mac1. Put plainly: biochemical. Details: SARS-CoV-2 nsp3 macrodomain TR-FRET single point, per cent inhibition, n=2.
Setting [9] is: In vitro mouse liver microsomal stability.
[10] abbreviates: protocol HeLa-ACE2 cytotoxicity.
The mark [11] stands for this setting: IC50, nsp3-mac1 activity, Figures 1-3 and text.
[12] abbreviates: TR-FRET dose response, supplement, read-out: ic50.
Where [13] appears, read: HTRF IC50, Figure 4A, racemic mixture.

Results on 18 compounds are retold here after article doi:10.1101/2024.08.19.608619, “Discovery of potent SARS-CoV-2 nsp3 macrodomain inhibitors uncovers lack of translation to cellular antiviral response” (bioRxiv, 2024).

The structures appear in SMILES notation. Values after ≈ are worked out from the molar mass of the structure shown. Values joined by “and” are separate entries in the source; they are usually repeats but may differ in a detail not shown here. Equal entries are not always repeated. Where two headings read alike, the source gives them in different places.

With `Cn1ncc(-c2cc3c(N[C@@H](c4ccc5c(c4)OCCO5)C(C)(C)C)ncnc3[nH]2)c1C#N` (racemic) [ASAP-0008484], in the data set on SARS-CoV-2, a half-maximal effect (EC50) was put at 7.67 µM; the EC90 – broadly, the concentration at which the effect reaches the 90% level – amounted to 13.4 µM; the perc_max_measured was found to be 131.986%; the perc_min_measured was determined as 2.165%. Moreover, the solubility_mean in data set [1] was 25 µM (≈ 11.1 µg/mL). In addition, in data set [2] (setting [9]), the clint was found to be 199.0 µL/min/mg, the perc_remaining amounted to 4.0% and the t_half worked out at 8.4 min. For the same compound, the perc_remaining_no_cofactor in [2] (In vitro mouse liver microsomal stability; no cofactor) is 100.0%. Besides, in data set [3], the clint was found to be 85.0 µL/min/mg, the perc_remaining is on record as 22.0%, the t_half is reported as 19.6 min and the perc_remaining_no_cofactor is 109.0%. In [4] (mean), this compound gave a papp_a_to_b_mean of 2.79 ×10⁻⁶ cm/s and a perc_recovery_a_to_b_mean of 39.4%. In [5], the perc_max_measured was 91.316% and 93.387%; the perc_min_measured was 1.9% and 1.413%; the EC50 (commonly the concentration needed to bring the measured effect to its halfway point) was 1.05 µM and 1.12 µM; the EC90 is 2.12 µM and 3.3 µM. Moreover, in the data set with iPSC pneumocytes, the CC50 (as a rule, the concentration giving 50% cytotoxicity) is 48.6 µM; the cc10 is 41.767 µM; the perc_max_measured was 107.062%; the perc_min_measured was found to be 63.039%. In the data set “LogD”, this compound showed a logd of 2.9. In addition, the CC50 at 24 h in the data set “in vitro” was more than 20 µM. In addition, in the data set on HeLa-ACE2 cells (setting [10]), the CC50 is more than 20 µM; the cc10 was more than 20.0 µM; the perc_max_measured is 117.871% and 98.808%; the perc_min_measured is 61.501% and 55.999%.
In the case of `Cc1[nH]c2ncnc(NC(=O)C3CC=CC3)c2c1C` [ASAP-0000025], on SARS-CoV-2 nsp3-mac1 [6] (setting [11]), the IC50 (commonly the midpoint of a concentration-inhibition curve) amounted to 42 µM. Also, the inhibition at 50 µM on SARS-CoV-2 nsp3-mac1 [7] was determined as 73.1%.
For `CC(C)C(Nc1ncnc2n[nH]cc12)c1cnn(C)c1` (stereo not drawn) [ASAP-0000031], in that order: 43 µM and 63.5%.
For the compound `O=C(NCc1cc2n(n1)CCCC2)c1cc2cncnc2[nH]1` [ASAP-0000134], on SARS-CoV-2 nsp3-mac1 [6] (TR-FRET dose response), the perc_max_measured is on record as 2.258% and the perc_min_measured is -11.392%. In addition, the IC50 on SARS-CoV-2 nsp3-mac1 [6] (setting [12]) was more than 124 µM. Further, the inhibition at 50 µM at SARS-CoV-2 nsp3-mac1 [8] (read-out: perc_inhibition_mean, batch_name=ASAP-0000134-001) came out at 4.17%. This compound also displayed a perc_inhibition_mean on SARS-CoV-2 nsp3-mac1 [7] of 4.173%.
On SARS-CoV-2 nsp3-mac1 [6], `O=C(c1cccc(Br)c1)N1CCC(c2ccn3ncc(C(=O)N4CCCCC4)c3c2)CC1` [ASAP-0000191] returned a hill_slope of 0.907. Besides, at SARS-CoV-2 nsp3-mac1 [6] (TR-FRET dose response), the perc_max_measured amounted to 41.392% and the perc_min_measured is given as -0.981%. The IC50 on SARS-CoV-2 nsp3-mac1 [6] (setting [12]) was more than 124 µM. For the same compound, the inhibition at 50 µM at SARS-CoV-2 nsp3-mac1 [8] (read-out: perc_inhibition_mean, batch_name=ASAP-0000191-001) came out at 32.1%. This compound also showed a perc_inhibition_mean at SARS-CoV-2 nsp3-mac1 [7] of 32.136%.
The compound `O=C(OCc1cccc(Cl)n1)c1ncnc2[nH]ccc12` [ASAP-0000193] yielded a hill_slope at SARS-CoV-2 nsp3-mac1 [6] of 1.685. Moreover, at SARS-CoV-2 nsp3-mac1 [6] (TR-FRET dose response), the perc_max_measured came out at 38.614% and the perc_min_measured is -4.676%. Further, the IC50 at SARS-CoV-2 nsp3-mac1 [6] (setting [12]) is more than 124 µM. Also, the inhibition at 50 µM at SARS-CoV-2 nsp3-mac1 [8] (read-out: perc_inhibition_mean, batch_name=ASAP-0000193-001) was 11.4%. Moreover, the perc_inhibition_mean on SARS-CoV-2 nsp3-mac1 [7] is 11.426%.
For the compound `OC[C@@H](Nc1ncnc2[nH]c(I)cc12)c1ccccc1` [ASAP-0000197], at SARS-CoV-2 nsp3-mac1 [6], the hill_slope amounted to 1.082. On SARS-CoV-2 nsp3-mac1 [6] (TR-FRET dose response), the perc_max_measured is given as 42.06% and the perc_min_measured is -3.652%. The IC50 at SARS-CoV-2 nsp3-mac1 [6] (setting [12]) was more than 124 µM. The inhibition at 50 µM on SARS-CoV-2 nsp3-mac1 [8] (read-out: perc_inhibition_mean, batch_name=ASAP-0000197-001) came to 26.1%. This compound also returned a perc_inhibition_mean at SARS-CoV-2 nsp3-mac1 [7] of 26.134%.
Consider `O=C(O)c1cscc1C(=O)N1CCC(c2ccn3ncc(C(=O)N4CCCCC4)c3c2)CC1` [ASAP-0000259], for which, at SARS-CoV-2 nsp3-mac1 [6] (setting [11]), the IC50 amounted to 44 µM. Besides, on SARS-CoV-2 nsp3-mac1 [7], the inhibition at 50 µM came out at 47.7% and the inhibition at 100 µM amounted to 66.7%.
For `Cc1[nH]c2ncnc(NC(=O)c3ccncc3Cl)c2c1C` [ASAP-0000266], in that order: 25 µM, 69.6% and 85.6%.
For `COc1ccc(C(Nc2ncnc3[nH]ccc23)C(C)C)cc1` (stereo not drawn) [ASAP-0000752], the IC50 on SARS-CoV-2 nsp3-mac1 [6] (setting [13]) was found to be 7.2 µM.
For `O=C(O)C(Nc1ncnc2[nH]ccc12)c1ccc2c(c1)OCCO2` (stereo not drawn) [ASAP-0000789], the IC50 at SARS-CoV-2 nsp3-mac1 [6] (setting [13]) was 8.7 µM.
On the same count and under the same terms, the figure for `c1nc(NC(c2ccc3c(c2)OCCO3)C2CCC2)c2cc[nH]c2n1` (stereo not drawn) [ASAP-0000866] is 5.8 µM.
As for `FC(F)(F)C(Nc1ncnc2[nH]ccc12)c1ccc2c(c1)OCCO2` (stereo not drawn) [ASAP-0000870], the IC50 at SARS-CoV-2 nsp3-mac1 [6] (Figure 4A, racemic mixture, read-out: HTRF IC50) turned out to be 19 µM.
Consider `CC(C)(C)C(Nc1ncnc2[nH]ccc12)c1ccc2c(c1)OCCO2` (stereo not drawn) [ASAP-0008277], for which the IC50 on SARS-CoV-2 nsp3-mac1 [6] (setting [13]) came to 1.1 µM.
For the compound `CC(C)[C@@H](Nc1ncnc2[nH]c(-c3cnn(C)n3)cc12)c1ccc2c(c1)OCCO2` [ASAP-0008469], in the data set on SARS-CoV-2, the midpoint of the response, the EC50, lay at 13.3 µM; it took 25.3 µM to reach the 90% level (EC90); the perc_max_measured was 157.709%; the perc_min_measured stood at 4.934%. In [5], the perc_max_measured was 101.658% and 92.76%; the perc_min_measured was 24.481% and 27.109%; the EC50 was 5.33 µM and 6.65 µM; the EC90 was more than 20 µM. Moreover, in the data set with iPSC pneumocytes, the perc_max_measured stood at 89.766% and the perc_min_measured stood at 75.657%. In “in vitro”, the CC50 at 24 h was more than 20 µM. Further, in the data set on HeLa-ACE2 cells, the CC50 was more than 20 µM and the cc10 is more than 20.0 µM. Besides, in the data set on HeLa-ACE2 cells (setting [10]), the perc_max_measured is 104.412% and 106.04%; the perc_min_measured was 76.407% and 89.613%.
On to `CC(C)C(Nc1ncnc2[nH]c(-c3cnn(C)c3)cc12)c1ccc2c(c1)OCCO2` (stereo not drawn) [ASAP-0008596], for which the IC50 against SARS-CoV-2 nsp3-mac1 [6] (setting [11]) was 0.56 µM.
As to `CC(C)C(Nc1ncnc2[nH]c(C(=O)NC3CCN(C)C3)cc12)c1ccc2c(c1)OCCO2` (stereo not drawn) [ASAP-0010747], the half-maximal inhibitory concentration (IC50) on SARS-CoV-2 nsp3-mac1 [6] (setting [13]) was determined as 0.46 µM.
As for `CNC(=O)c1cccc(-c2cc3c(N[C@@H](c4ccc5c(c4)S(=O)(=O)CCC5)C(C)C)ncnc3[nH]2)c1` [ASAP-0012344], in data set [1], the solubility_mean was determined as 15 µM (≈ 7.55 µg/mL). Besides, in data set [2] (setting [9]), the clint turned out to be 882.0 µL/min/mg, the perc_remaining came to 1.0% and the t_half is given as 1.9 min. Further, the perc_remaining_no_cofactor in data set [2] (In vitro mouse liver microsomal stability, no cofactor) is reported as 101.0%. In data set [3], the clint was found to be 455.0 µL/min/mg, the perc_remaining amounted to 0.0%, the t_half was determined as 3.7 min and the perc_remaining_no_cofactor is on record as 93.0%. Besides, in data set [4] (no inhibitor), the papp_a_to_b_mean turned out to be 0.627 ×10⁻⁶ cm/s and the perc_recovery_a_to_b_mean is 67.1%. Further, in [5], the perc_max_measured is listed as 108.746%, the perc_min_measured is given as 56.34%, the EC50 is more than 20 µM and the EC90 is more than 20 µM. The same compound yielded a logd in “LogD” of 3.7. Besides, the CC50 at 24 h in “in vitro” was more than 20 µM. For the same compound, in the data set with HeLa-ACE2 cells (setting [10]), the CC50 is more than 20 µM, the cc10 is more than 20.0 µM, the perc_max_measured is reported as 109.077% and the perc_min_measured was found to be 84.376%.
